Measurements published in patent US9409876B2, “Bradykinin receptor antagonists and pharmaceutical compositions containing them” (DOMPE' FARMACEUTICI S.P.A., priority 2013, dated 2016).
Read-outs that look alike come from different tables or passages of the source.

Assays:
BKB1 receptors = target: T1, BKB1 receptors (Homo sapiens, UniProt P46663); assay: Calcium Mobilization Assay (FLIPR), IMR-90 cells, BKB1; assay type: cell-based; conditions: IL-1 induced IMR-90 cells, agonist desArg10-kallidin (DAKD)
T1 construct: Human (IMR-90) lung fibroblast cells expressing native BKB1 receptors; endogenous in cells; host or cells: IMR-90 human lung fibroblasts, treated with human IL-1 to up-regulate BKB1
T1 sequence (P46663 1-353): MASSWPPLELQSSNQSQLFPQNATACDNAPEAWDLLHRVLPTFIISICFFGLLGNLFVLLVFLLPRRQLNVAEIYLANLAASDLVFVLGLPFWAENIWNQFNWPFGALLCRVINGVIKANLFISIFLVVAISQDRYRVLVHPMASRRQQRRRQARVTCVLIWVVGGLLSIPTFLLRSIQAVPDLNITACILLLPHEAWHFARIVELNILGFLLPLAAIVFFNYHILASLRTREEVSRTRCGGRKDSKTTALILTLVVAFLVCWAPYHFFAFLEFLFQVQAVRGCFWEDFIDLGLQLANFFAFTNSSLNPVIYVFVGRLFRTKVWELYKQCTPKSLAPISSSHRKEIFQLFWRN

[1] = Pharmacokinetics after oral gavage; assay type: in vivo, rat; conditions: for AUC(0-inf): read-out: AUCINF_obs (converted); for half-life: read-out: T½
Description: In three of the rats tested in Example 56, indicated as R1, […], also the pharmacokinetic profile of compound 8 (R,R) was evaluated. The results are summarised in Tables III to IV and in FIGS. 1-4.
FIGS. 1 and 2 show the plasma concentrations, expressed in ng/ml, of compound 8 (R,R) over time after oral administration for each of the three subjects tested (FIG. 1) and as an average (FIG. 2).
In tables III and V, T1/2 means the half-time of the compound, Tmax means the time at which the concentration of the compound reaches the maximum level, Cmax means the maximal concentration, Tlast means the latest time-point at which the concentration of the compound can be measured, Clast means the concentration at the latest time-point at which the concentration of the compound can be measured, AUClast means the area under the curve at the latest time-point at which the concentration of the compound can be measured, AUCinf_obs means the area under the curve which is infinitely extrapolated and MRTlast means the mean residence time at the latest time-point at which the concentration of the compound can be measured.
In tables IV and VI, LLOQ means lower limit of quantification.

[2] = Metabolic stability in liver microsomes with NADPH; assay type: in vitro ADME; conditions: Wistar, rat, microsomes 0.5 mg/ml, pH 7.4, with NADPH, read-out: intrinsic clearance (CLint)
Description: Metabolic stability of compound 8 (R,R) was also determined in rat wistar liver microsomes in the in the presence of NADPH.
The concentration of the compound 8 (R,R) was 1 μM and microsomes 0.5 mg/ml in phosphate buffer 0.1M pH 7.4 with NADPH.
The degradation of the substrates was measured in duplicate by LC/MS/MS during six time points of incubation.

[3] = Sprague-Dawley (SD), rat, plasma, po, 10 mg/kg, oral administration, Average, read-out: plasma level
[4] = Sprague-Dawley (SD), rat, plasma, po, 10 mg/kg, oral administration, Rat2, read-out: plasma level
[5] = Sprague-Dawley (SD), rat, plasma, po, 10 mg/kg, oral administration, Rat3, read-out: plasma level
[6] = Sprague-Dawley, rat, plasma, po, 10 mg/kg, 10 mg/kg oral gavage, Average
[7] = Sprague-Dawley, rat, plasma, po, 10 mg/kg, 10 mg/kg oral gavage, Rat 1
[8] = Sprague-Dawley, rat, plasma, po, 10 mg/kg, 10 mg/kg oral gavage, Rat 2
[9] = Sprague-Dawley, rat, plasma, po, 10 mg/kg, 10 mg/kg oral gavage, Rat 3
[10] = Sprague-Dawley, rat, plasma, po, 10 mg/kg, oral administration, Average, read-out: plasma level
[11] = Sprague-Dawley, rat, plasma, po, 10 mg/kg, oral administration, Rat1, read-out: plasma level
[12] = Sprague-Dawley, rat, plasma, po, 10 mg/kg, oral administration, Rat2, read-out: plasma level
[13] = Sprague-Dawley, rat, plasma, po, 10 mg/kg, oral administration, Rat3, read-out: plasma level

For COc1ccccc1CN(C(=O)CC(C)C)[C@@H](C(=O)NC[C@H]1CCCO1)c1ccc(C)cc1 [Compound 8 (R,R), 3-methyl-N-(2-methoxybenzyl)-N-{[(1R)-1-(4-methylphenyl)]-2-oxo-2-[(2R)-(tetrahydrofuran-2-ylmethyl)amino]ethyl}butanamide], the IC50 (BKB1 receptors) was 134 nM, the Clast ([1]; 10 mg/kg oral gavage, Average) was 1.1 ng/mL and the Tlast ([1]; 10 mg/kg oral gavage, Average) was 200.0 min. It also gave a Tlast ([1]; 10 mg/kg oral gavage, Rat 1) of 240 min, a Tlast ([1]; 10 mg/kg oral gavage, Rat 2) of 240 min and a Tlast ([1]; 10 mg/kg oral gavage, Rat 3) of 120 min. It also gave a bioavailability ([1]; SD (Sprague-Dawley), rat, plasma, 10 mg/kg, oral vs intravenous exposure) of 0.16%, a Cmax ([1]; SD (Sprague-Dawley), rat, plasma, po, 10 mg/kg, oral administration) of ~3 ng/mL and a concentration at 15 min [1, 3] of 2.6 ng/mL. The concentration at 15 min [1, 4] was 3 ng/mL, the concentration at 15 min [1, 5] was 2.3 ng/mL and the concentration at 30 min [1, 3] was 2 ng/mL. It also gave a concentration at 30 min ([1]; Sprague-Dawley (SD), rat, plasma, po, 10 mg/kg, oral administration, Rat1, read-out: plasma level) of 1.8 ng/mL, a concentration at 30 min [1, 4] of 2.4 ng/mL and a concentration at 30 min [1, 5] of 1.7 ng/mL. The concentration at 240 min ([1]; Sprague-Dawley, rat, plasma, oral, 10 mg/kg, 10 mg/kg oral gavage, Rat 1, read-out: Clast) was 1.1 ng/mL, the concentration at 240 min ([1]; Sprague-Dawley, rat, plasma, oral, 10 mg/kg, 10 mg/kg oral gavage, Rat 2, read-out: Clast) was 1.1 ng/mL and the concentration at 120 min ([1]; Sprague-Dawley, rat, plasma, oral, 10 mg/kg, 10 mg/kg oral gavage, Rat 3, read-out: Clast) was 1 ng/mL. The AUC(0-t) [1, 6] was 5.63 ng·h/mL, the Cmax [1, 6] was 3.4 ng/mL and the MRT last [1, 6] was 1.41 h. The Tmax [1, 6] was 0.138 h, the AUC(0-inf) [1, 6] was 10.8 ng·h/mL and the half-life [1, 6] was 3.37 h. For the same compound, the AUC(0-t) [1, 7] was 5.67 ng·h/mL, the Cmax [1, 7] was 4 ng/mL and the MRT last [1, 7] was 1.69 h. The Tmax [1, 7] was 0.0833 h, the AUC(0-inf) [1, 7] was 14.4 ng·h/mL and the half-life [1, 7] was 5.75 h. The AUC(0-t) [1, 8] was 8.62 ng·h/mL, the Cmax [1, 8] was 3 ng/mL and the MRT last [1, 8] was 1.73 h. It also gave a Tmax [1, 8] of 0.25 h, an AUC(0-inf) [1, 8] of 13.7 ng·h/mL and a half-life [1, 8] of 3.19 h. It also gave an AUC(0-t) [1, 9] of 2.59 ng·h/mL, a Cmax [1, 9] of 3.3 ng/mL and an MRT last [1, 9] of 0.795 h. The Tmax [1, 9] was 0.0833 h, the AUC(0-inf) [1, 9] was 4.28 ng·h/mL and the half-life [1, 9] was 1.17 h. For the same compound, the concentration at 5 min [1, 10] was 3.1 ng/mL, the concentration at 5 min [1, 11] was 4 ng/mL and the concentration at 5 min [1, 12] was 2.2 ng/mL. The concentration at 5 min [1, 13] was 3.3 ng/mL, the concentration at 15 min [1, 11] was 2.7 ng/mL and the concentration at 60 min [1, 10] was 1.4 ng/mL. The concentration at 60 min [1, 11] was 1.3 ng/mL, the concentration at 60 min [1, 12] was 2.1 ng/mL and the concentration at 60 min [1, 13] was 0.8 ng/mL. It also gave a concentration at 120 min ([1]; Sprague-Dawley, rat, plasma, po, 10 mg/kg, oral administration, 120 min, Average, read-out: plasma level) of 1.7 ng/mL, a concentration at 120 min ([1]; Sprague-Dawley, rat, plasma, po, 10 mg/kg, oral administration, 120 min, Rat1, read-out: plasma level) of 1.3 ng/mL and a concentration at 120 min ([1]; Sprague-Dawley, rat, plasma, po, 10 mg/kg, oral administration, 120 min, Rat2, read-out: plasma level) of 2.8 ng/mL. It also gave a concentration at 120 min ([1]; Sprague-Dawley, rat, plasma, po, 10 mg/kg, oral administration, 120 min, Rat3, read-out: plasma level) of 1 ng/mL, a concentration at 240 min ([1]; Sprague-Dawley, rat, plasma, po, 10 mg/kg, oral administration, 240 min, Average, read-out: plasma level) of 1.1 ng/mL and a concentration at 240 min ([1]; Sprague-Dawley, rat, plasma, po, 10 mg/kg, oral administration, 240 min, Rat1, read-out: plasma level) of 1.1 ng/mL. The concentration at 240 min ([1]; Sprague-Dawley, rat, plasma, po, 10 mg/kg, oral administration, 240 min, Rat2, read-out: plasma level) was 1.1 ng/mL, the “absorption after oral administration” value ([1]; compared to the intravenous exposure) was “very poor absorption” and the plasma level ([1]; oral administration, 240 min, Rat3) was “<LLOQ”. The plasma level ([1]; oral administration, 480 min, Average) was “<LLOQ”, the plasma level ([1]; oral administration, 480 min, Rat1) was “<LLOQ” and the plasma level ([1]; oral administration, 480 min, Rat2) was “<LLOQ”. The plasma level ([1]; oral administration, 480 min, Rat3) was “<LLOQ” and the microsomal CLint at 1 μM [2] was 851 µL/min/mg.
